These compounds were tested against MetAP-2 (Homo sapiens, UniProt P50579) (assay: MetAP-2 activity measurement (coupled enzymatic reactions, Met-Arg-Ser substrate, dianisidine detection at 450 nm)). Details: Inhibition of MetAP-2; read-out: IC50 enzyme.
Type: biochemical
In short: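 Rate read from the linear part of the 450 nm absorbance trace. Dianisidine oxidation by peroxidase reports H2O2 made when amino acid oxidase acts on methionine cleaved from MAS tripeptide, one mol dye per mol Met; extinction coefficient gives molar activity.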

Chain of MetAP-2 (P50579 whole entry, species assumed): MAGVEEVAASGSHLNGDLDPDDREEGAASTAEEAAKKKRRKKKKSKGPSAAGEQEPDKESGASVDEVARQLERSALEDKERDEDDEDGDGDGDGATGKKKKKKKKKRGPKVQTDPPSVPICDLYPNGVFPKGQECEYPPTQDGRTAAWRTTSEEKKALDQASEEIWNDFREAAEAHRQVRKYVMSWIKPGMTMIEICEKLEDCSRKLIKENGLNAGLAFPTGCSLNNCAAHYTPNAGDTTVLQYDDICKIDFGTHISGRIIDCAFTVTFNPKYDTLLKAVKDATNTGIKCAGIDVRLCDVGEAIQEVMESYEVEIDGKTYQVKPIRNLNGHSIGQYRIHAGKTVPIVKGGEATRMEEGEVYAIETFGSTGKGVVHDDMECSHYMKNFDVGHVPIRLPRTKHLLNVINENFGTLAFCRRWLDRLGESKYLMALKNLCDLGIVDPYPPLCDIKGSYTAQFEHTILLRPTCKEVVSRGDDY

| SMILES | IC50 |
| --- | --- |
| O=C1CCc2cc(N3CC[C@](O)(C(=O)NCc4ccc(F)c(F)c4F)C3=O)ccc2N1 [A284, N-(2,3,4-Trifluorobenzyl)-(S)-3-hydroxy-2-oxo-1-(2-oxo-1,2,3,4-tetrahydroquinolin-6-yl)-pyrrolidine-3-carboxamide] | 10 to 1000 nM |
| O=C1Nc2ccc(N3CC[C@](O)(C(=O)NCc4cc(F)cc(Cl)c4)C3=O)cc2C1(F)F [A286, N-(3-Chloro-5-fluorobenzyl)-(S)-1-(3,3-difluoro-2-oxo-2,3-dihydro-1H-indol-5-yl)-3-hydroxy-2-oxopyrrolidine-3-carboxamide] | 10 to 1000 nM |
| O=C1Nc2ccc(N3CC[C@@](O)(C(=O)NCc4cc(F)cc(Cl)c4)C3=O)cc2C1(F)F [A288, N-(3-Chloro-5-fluorobenzyl)-(R)-1-(3,3-difluoro-2-oxo-2,3-dihydro-1H-indol-5-yl)-3-hydroxy-2-oxopyrrolidine-3-carboxamide] | > 10000 nM |
| Cc1nnc(CN2CCC(O)(C(=O)NCc3cc(F)cc(Cl)c3)C2=O)o1 (stereo not drawn) [A290, N-(3-Chloro-5-fluorobenzyl)-3-hydroxy-1-(5-methyl-1,3,4-oxadiazol-2-ylmethyl)-2-oxo-pyrrolidine-3-carboxamide] | 1000 to 10000 nM |
| CC(=O)N1CC[C@@H](N2CCC(O)(C(=O)NCc3cc(F)cc(Cl)c3)C2=O)C1 (stereo partly drawn) [A291, N-(3-chloro-5-fluorobenzyl-)(R)-1′-acetyl-3-hydroxy-2-oxo-[1,3′]bipyrrolidinyl-3-carboxamide] | 1000 to 10000 nM |
| CS(=O)(=O)N1CC[C@@H](N2CCC(O)(C(=O)NCc3cc(F)cc(Cl)c3)C2=O)C1 (stereo partly drawn) [A292, N-(3-Chloro-5-fluorobenzyl)-(R)-3-hydroxy-1′-methanesulfonyl-2-oxo[1,3′]bipyrrolidinyl-3-carboxamide] | 1000 to 10000 nM |
| CC1CCC(N2CCC(O)(C(=O)NCc3cc(F)cc(Cl)c3)C2=O)CC1 (stereo not drawn) [A293, N-(3-Chloro-5-fluorobenzyl)-3-hydroxy-1-(4-methylcyclohexyl)-2-oxopyrrolidine-3-carboxamide] | 10 to 1000 nM |
| NC(=O)CCN1CCC(O)(C(=O)NCc2cc(F)cc(Cl)c2)C1=O (stereo not drawn) [A300, N-(3-Chloro-5-fluorobenzyl)-1-(2-carbamoylethyl)-3-hydroxy-2-oxopyrrolidine-3-carboxamide] | 1000 to 10000 nM |
| O=C1CCc2cc(N3CC[C@](O)(C(=O)NCc4cc(Cl)ccc4F)C3=O)ccc2N1 [B4, N-(5-Chloro-2-fluorobenzyl)-(S)-3-hydroxy-2-oxo-1-(2-oxo-1,2,3,4-tetrahydroquinolin-6-yl)-pyrrolidine-3-carboxamide] | 10 to 1000 nM |
| O=C1CCc2cc(N3CC[C@](O)(C(=O)NCCc4ccccc4F)C3=O)ccc2N1 [B5, N-[2-(2-Fluorophenyl)ethyl]-(S)-3-hydroxy-2-oxo-1-(2-oxo-1,2,3,4-tetrahydroquinolin-6-yl)-pyrrolidine-3-carboxamide] | 10 to 1000 nM |
| O=C1CCc2cc(N3CC[C@](O)(C(=O)NCCc4cccc(F)c4)C3=O)ccc2N1 [B6, N-[2-(3-Fluorophenyl)ethyl]-(S)-3-hydroxy-2-oxo-1-(2-oxo-1,2,3,4-tetrahydroquinolin-6-yl)-pyrrolidine-3-carboxamide] | 10 to 1000 nM |
| CC(=O)Nc1ccc(N2CC[C@](O)(C(=O)NCc3cccc(F)c3Cl)C2=O)cn1 [B9, N-(2-Chloro-3-fluorobenzyl)-(S)-1-(6-acetylaminopyridin-3-yl)-3-hydroxy-2-oxopyrrolidine-3-carboxamide] | 10 to 1000 nM |
| O=C(NCCc1cccc(F)c1)[C@@]1(O)CCN(c2ccc3[nH]ccc3c2)C1=O [B10] | 10 to 1000 nM |
| COc1cc(Cl)c(C)cc1N1CCC(O)(C(=O)NCc2cc(F)cc(Cl)c2)C1=O (stereo not drawn) [B12, N-(3-Chloro-5-fluorobenzyl)-1-(4-chloro-2-methoxy-5-methyl-phenyl)-3-hydroxy-2-oxo-pyrrolidine-3-carboxamide] | 1000 to 10000 nM |
| COc1ccc(Cl)cc1N1CCC(O)(C(=O)NCc2cc(F)cc(Cl)c2)C1=O (stereo not drawn) [B13, 1-(5-Chloro-2-methoxyphenyl)-3-hydroxy-2-oxopyrrolidine-3-carboxylic acid 3-chloro-5-fluorobenzylamide] | 1000 to 10000 nM |
| O=C(NCCc1ccccc1F)[C@@]1(O)CCN(c2ccc3[nH]ccc3c2)C1=O [B14, (S)-3-hydroxy-1-(1H-indol-5-yl)-2-oxopyrrolidine-3-carboxylic acid[2-(2-fluorophenyl)ethyl]-amide] | 10 to 1000 nM |
| O=C1CCc2cc(N3CC[C@](O)(C(=O)NCc4cccc(F)c4Cl)C3=O)ccc2N1 [B15, N-(2-Chloro-3-fluorobenzyl)-(S)-3-hydroxy-2-oxo-1-(2-oxo-1,2,3,4-tetrahydroquinolin-6-yl)-pyrrolidine-3-carboxamide] | 10 to 1000 nM |
| O=C(NCc1cc(F)cc(Cl)c1)C1(O)CCCN(Cc2ccccc2)C1 (stereo not drawn) [B16, N-(3-Chloro-5-fluorobenzyl)-1-benzyl-3-hydroxypiperidine-3-carboxamide] | 1000 to 10000 nM |
| O=C(NCc1cc(F)cc(Cl)c1)[C@@]1(O)CCN(c2ccc(Br)c(CO)c2)C1=O [B17, N-(3-Chloro-5-fluorobenzyl)-(S)-1-(4-bromo-3-hydroxymethyl-phenyl)-3-hydroxy-2-oxo-pyrrolidine-3-carboxamide] | 10 to 1000 nM |
| O=C1N(CC2CCCCC2)CCCC1(O)CNCc1cc(F)cc(Cl)c1 (stereo not drawn) [B18, 3-[(3-Chloro-5-fluorobenzylamino)methyl]-1-cyclohexylmethyl-3-hydroxy-piperidin-2-one] | 10 to 1000 nM |

| SMILES | IC50 |
| --- | --- |
| OC1(CNCc2cc(F)cc(Cl)c2)CCCN(Cc2ccccc2)C1 (stereo not drawn) [B19, 1-Benzyl-3-[(3-chloro-5-fluorobenzylamino)methyl]-piperidin-3-ol] | > 10000 nM |
| OC1(CNCc2cccc(F)c2)CCCN(Cc2ccccc2)C1 (stereo not drawn) [B20, 1-Benzyl-3-[(3-fluorobenzylamino)methyl]-piperidin-3-ol] | > 10000 nM |
| O[C@]1(CNCc2ccc(F)cc2)CCCN(Cc2ccccc2)C1 [B21, (S)-1-Benzyl-3-[(4-fluorobenzylamino)methyl]-piperidin-3-ol] | > 10000 nM |
| O=C1N(Cc2cccc(F)c2F)CCC[C@]1(O)CNCc1cccc(F)c1 [B22, (S)-1-(2,3-Difluorobenzyl)-3-[(3-fluorobenzylamino)methyl]-3-hydroxypiperidin-2-one] | 10 to 1000 nM |
| O=C1N(Cc2cccc(F)c2F)CCC[C@@]1(O)CNCc1cccc(F)c1 [B23, (R)-1-(2,3-Difluorobenzyl)-3-[(3-fluorobenzylamino)methyl]-3-hydroxypiperidin-2-one] | 1000 to 10000 nM |
| O=C1CCc2cc(N3CC[C@](O)(C(=O)NCc4cc(F)ccc4F)C3=O)ccc2N1 [B24, N-(2,5-Difluorobenzyl)-(S)-3-hydroxy-2-oxo-1-(2-oxo-1,2,3,4-tetrahydroquinolin-6-yl)-pyrrolidine-3-carboxamide] | 10 to 1000 nM |
| O=C(NCc1cc(F)cc(Cl)c1)C1(O)CCN(c2cc(C(F)(F)F)ccc2F)C1=O (stereo not drawn) [B26, N-(3-Chloro-5-fluorobenzyl)-1-(2-Fluoro-5-trifluoromethyl-phenyl)-3-hydroxy-2-oxo-pyrrolidine-3-carboxamide] | 10 to 1000 nM |
| O=C(NCc1cc(F)cc(Cl)c1)C1(O)CCN(c2ccc(Cl)c(C(F)(F)F)c2)C1=O (stereo not drawn) [B27, N-(3-Chloro-5-fluorobenzyl)-1-(4-Chloro-3-trifluoromethyl-phenyl)-3-hydroxy-2-oxo-pyrrolidine-3-carboxamide] | 10 to 1000 nM |
| NC(=O)c1cc(N2CCC(O)(C(=O)NCc3cc(F)cc(Cl)c3)C2=O)ccc1F (stereo not drawn) [B28, N-(3-Chloro-5-fluorobenzyl)-1-(3-carbamoyl-4-fluorophenyl)-3-hydroxy-2-oxopyrrolidine-3-carboxamide] | 10 to 1000 nM |
| O=C1N(c2ccccc2)CCC1(O)CNCc1cc(F)cc(Cl)c1 (stereo not drawn) [B29, 3-[(3-Chloro-5-fluorobenzylamino)methyl]-3-hydroxy-1-phenylpyrrolidin-2-one] | 10 to 1000 nM |
| OC1(CNCc2cc(F)cc(Cl)c2)CCN(Cc2ccccc2)C1 (stereo not drawn) [B30, 1-Benzyl-3-[(3-chloro-5-fluorobenzylamino)methyl]-pyrrolidin-3-ol] | > 10000 nM |
| O=C1N(Cc2ccccc2)CCCC1(O)CNCc1cc(F)cc(Cl)c1 (stereo not drawn) [B31, 1-Benzyl-3-[(3-chloro-5-fluorobenzylamino)methyl]-3-hydroxypiperidin-2-one] | 10 to 1000 nM |
| O=C1N(c2ccccc2)CCCC1(O)CNCc1cc(F)cc(Cl)c1 (stereo not drawn) [B32, 3-[(3-Chloro-5-fluorobenzylamino)methyl]-3-hydroxy-1-phenylpiperidin-2-one] | 10 to 1000 nM |
| Cc1nc2cc(N3CCC(O)(C(=O)NCc4cc(F)cc(Cl)c4)C3=O)cnc2[nH]1 (stereo not drawn) [B33, N-(3-Chloro-5-fluorobenzyl)-3-hydroxy-1-(2-methyl-3H-imidazo[4,5-b]pyridin-6-yl)-2-oxopyrrolidine-3-carboxamide] | 10 to 1000 nM |
| O=C(NCc1cc(F)cc(Cl)c1)C1(O)CCN(c2cnc3[nH]cnc3c2)C1=O (stereo not drawn) [B35, N-(3-Chloro-5-fluorobenzyl)-3-hydroxy-1-(3H-imidazo[4,5-b]-pyridin-6-yl)-2-oxopyrrolidine-3-carboxamide] | 10 to 1000 nM |
| O=C(NCc1cc(F)cc(Cl)c1)C1(O)CCN(c2cnc3[nH]c(C(F)(F)F)nc3c2)C1=O (stereo not drawn) [B36, N-(3-Chloro-5-fluorobenzyl)-3-hydroxy-2-oxo-1-(2-trifluoromethyl-3H-imidazo-[4,5-b]pyridin-6-yl)pyrrolidine-3-carboxamide] | 1000 to 10000 nM |
| O=C(NCc1cc(F)cc(Cl)c1)[C@@]1(O)CCN(CCc2c[nH]c3ccccc23)C1=O [B37, N-(3-Chloro-5-fluorobenzyl)-(S)-3-hydroxy-1-[2-(1H-indol-3-yl)-ethyl]-2-oxopyrrolidine-3-carboxamide] | 10 to 1000 nM |
| O=C(NCc1cc(F)cc(Cl)c1)[C@]1(O)CCN(CCc2c[nH]c3ccccc23)C1=O [B38, N-(3-Chloro-5-fluorobenzyl)-(R)-3-hydroxy-1-[2-(1H-indol-3-yl)-ethyl]-2-oxopyrrolidine-3-carboxamide] | 1000 to 10000 nM |
| O=C(NCc1cc(F)cc(Cl)c1)[C@@]1(O)CCN(c2cc(C(F)(F)F)ccc2F)C1=O [B39, N-(3-Chloro-5-fluorobenzyl)-(S)-1-(2-Fluoro-5-trifluoromethyl-phenyl)-3-hydroxy-2-oxo-pyrrolidine-3-carboxamide] | 10 to 1000 nM |

— US10093623B2, “Cyclic amides as MetAP-2 inhibitors” (MERCK PATENT GmbH, priority 2012, dated 2018)
